From US9234006B2, “Compounds” (Novacta Biosystems Limited, priority 2011, dated 2016)
Where a name gives a salt, the structure may show the parent alone. Read-outs that look alike come from different tables or passages of the source. Marks after values point to notes of the source that are not given here. Where a SMILES comes first, the peptide text is derived from it. Bridges are numbered along the chain shown (N, C = ends). [ ]: non-standard residue; d: D form. The star is where a group is joined. ξ: configuration not given here. Thr(3ξ) = CC(O)[C@H](N)C(=O)O; Dab = NCC[C@H](N)C(=O)O; X1 = CCCCCCC(O)C(=O)*; GABA = NCCCC(=O)O

Key:
[1] = tested on: HK-2 cell line; conditions: 24 h incubation, resazurin reduction; Table 7
Method: The renal cell toxicity of the compounds was assessed in an in vitro assay using the HK-2 cell line, an immortalized proximal tubule cell line derived from a normal human kidney. The endpoint to describe the toxicity of the compounds was the reduction of resazurin correlating with the metabolic activity of the cells.
Cells were cultured in 150 cm^2 flasks in 25 mL supplemented KSF (with 5 ng/mL EGF and 50 μg/mL BPE). Cells were maintained at 70% confluence with a maximum of 25 passages. Day 1: Media was removed and cells were washed with 10 ml DPBS. […] After 1 to 2 minutes incubation, 14 ml media was added to the flask to inactivate the trypsin. The cell suspension was transferred to a centrifuge tube and the cells pelleted at 1000 rpm for 6 minutes. The cell pellet was then resuspended in fresh media supplemented with EGF and BPE. […] 7500 cells were dispensed in each well in a volume of 160 μl and incubated at 37° C. for 24 h.
Day 2: Test compounds were prepared directly into the media. […] The microtiter plates were removed from the incubator and the media replaced with 100 μl of the dilutions of the compound solution. Every set of concentration was done in triplicate, and positive and negative controls were added to each plate. The plates were then incubated for 24 h at 37° C. with 5% CO2 in a humidified atmosphere.
Day 3: The reagent containing the resazurin (CellTiter-Blue, Promega) was diluted in PBS (1:4) and added at 20% (v/v) to each well. The plates were then incubated at 37° C. for 2 h before the fluorescent reduction product was detected.
Media only background values were subtracted before the data was analysed using GraphPad Prism. Compound concentration values were plotted as log values to enable a dose-response curve to be fitted and IC50 values determined (Table 7).
The renal cell toxicity of the additional example compounds was assessed in an in vitro assay using the HK-2 cell as described in the example above.

[2] = tested on: E. coli clinical isolates and resistant strains; assay type: cell-based; conditions: clinical isolates and resistant strains
Method: (§1) The in vitro antibacterial activities of the compounds of examples 2 and 6 were evaluated against a panel of […] Gram-negative bacterial isolates alongside Colistin. The panel consisted of 100 clinical isolates of each of A. baumannii, E. coli, K. pneumoniae and P. aeruginosa. The panel represented the current epidemiology in Europe and the USA and included a number of relevant strains with defined resistant phenotypes to current clinically-used antibacterial agents. These resistant strains included 20 A. baumannii, 22 E. coli, 25 K. pneumoniae and 20 P. aeruginosa strains.
(§2) All compounds were tested up to a maximum concentration of 64 μg/mL with the exception of colistin, which was evaluated up to a maximum concentration of 16 μg/mL.

[3] = tested on: P. aeruginosa clinical isolates and resistant strains; assay type: cell-based; conditions: clinical isolates and resistant strains
Method: as §1, §2

[4] = tested on: K. pneumoniae clinical isolates and resistant strains; assay type: cell-based; conditions: clinical isolates and resistant strains
Method: as §1, §2

[5] = parameters: species or system rats; conditions: rat, in vivo, 8 mg/kg
Method: Colistin and the example compounds were prepared in saline. Compounds were introduced via the jugular canula twice a day 7 hours apart for seven days. […] The dose regimen is set out in Table 8 below.

[6] = tested on: A. baumannii ATCCBAA-747; assay: MIC susceptibility testing, broth microdilution in CaMHB; assay type: cell-based, Acinetobacter baumannii
In short: (§3)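 Each strain is grown from fresh agar colonies overnight in CaMHB (37° C, 250 rpm), subcultured to OD600 0.2-0.3 and diluted 100-fold into fresh medium for inoculation. MICs are determined in duplicate.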

[7] = tested on: A. baumannii NCTC13423; assay: as above; assay type: cell-based, Acinetobacter baumannii
In short: as §3

[8] = tested on: Escherichia coli isolate ATCC25922; assay type: in vivo; conditions: thigh
Method: Groups of 5 female specific-pathogen-free CD-1 mice weighing 22±2 g were used. The animals were made neutropenic by intraperitoneal administration of cyclophosphamide on days −4 (150 mg/kg) and −1 (100 mg/kg). […] Examples 2, 4, 5, 6, 7, 8, 10, 11 and polymyxin B were prepared in Normal Saline at 2 mg/mL and the solution was adjusted to pH 6-7 by addition of 0.1M H2SO4 or 4.2% NaHCO3 as required. Twenty-four hours after infection, the mice were euthanized humanely. The muscle of the right thigh of each animal was harvested, homogenized, serially diluted and plated on Brain Heart Infusion agar+0.5% charcoal (w/v) for CFU determination. Decrease of the total CFU of right thigh as compared to control counts at 24 hrs post-infection was determined for each dose group. […] The in vivo efficacy of the compound of Example 14 was evaluated in a mouse thigh infection model of E. coli. using the methods described in the examples above. The result is summarized in Table 5A in comparison with Polymyxin B.

[9] = Table 4A, different batches of cation-adjusted Muller-Hinton broth

Compound	IC50 HK-2 cells [1]	MIC50 Clinical isolates [2] [µg/mL]	MIC50 Resistant strains [2] [µg/mL]	MIC90 Clinical isolates [2] [µg/mL]	MIC90 Resistant strains [2] [µg/mL]	MIC Range Resistant strains [2] [µg/mL]	MIC50 Clinical isolates [3] [µg/mL]	MIC50 Resistant strains [3] [µg/mL]	MIC90 Clinical isolates [3] [µg/mL]	MIC90 Resistant strains [3] [µg/mL]	MIC Range Clinical isolates [3] [µg/mL]	MIC Range Resistant strains [3] [µg/mL]	MIC50 Clinical isolates [4] [µg/mL]	MIC50 Resistant strains [4] [µg/mL]	MIC90 Clinical isolates [4] [µg/mL]	MIC90 Resistant strains [4] [µg/mL]	levels of the renal biomarker NAG in urine compared to Colistin at the same dose regimen [5]	levels of the renal biomarker albumin in urine compared to Colistin at the same dose regimen [5]	levels of the renal biomarker cystatin C in urine compared to Colistin at the same dose regimen [5]	MIC ([6]; Table 4) [micrograms/mL]	further results
CC(C)C[C@@H]1NC(=O)[C@@H](Cc2ccccc2)NC(=O)[C@H](CCN)NC(=O)[C@@H](NC(=O)[C@H](CCN)NC(=O)[C@@H](NC(=O)CCCN)[C@@H](C)O)CCNC(=O)[C@H]([C@@H](C)O)NC(=O)[C@H](CCN)NC(=O)[C@H](CCN)NC1=O [Example 6, 4-Aminobutanoyl Polymyxin B Nonapeptide, Sulphate Salt] (H-[GABA]T[Dab][Dab][Dab][dF]L[Dab][Dab]T; lactam 4-C)	154 µg/mL	2	0.5	8	4	0.06 to 4	0.25	0.5	16	8	0.06 to 64	0.12 to 16	>64	>64	>64	>64	significantly reduced levels	significantly reduced levels	significantly reduced levels	–	–
CCCCCCC(O)C(=O)N[C@H](C(=O)N[C@@H](CCN)C(=O)N[C@H]1CCNC(=O)[C@H](C(C)O)NC(=O)[C@H](CCN)NC(=O)[C@H](CCN)NC(=O)[C@H](CC(C)C)NC(=O)[C@@H](Cc2ccccc2)NC(=O)[C@H](CCN)NC1=O)C(C)O (stereo partly drawn) [Example 2, [2(R,S)-2-Hydroxyoctanoyl] Polymyxin B Nonapeptide, Sulphate Salt] (X1-[Thr(3ξ)][Dab][Dab][Dab][dF]L[Dab][Dab][Thr(3ξ)]; lactam 3-C)	–	2	1	4	2	0.5 to 4	2	2	4	4	1 to 8	1 to 4	8	8	32	32	significantly reduced levels	significantly reduced levels	significantly reduced levels	2	MIC [6, 9]: 2 micrograms/mL; MIC ([7]; Table 4): 1 micrograms/mL; MIC [7, 9]: 1 micrograms/mL; MIC Range Clinical isolates [2]: 1 to 16 µg/mL
Polymyxin B [reference compound]	11^b μg/mL	–	–	–	–	–	–	–	–	–	–	–	–	–	–	–	–	–	–	0.25	MIC [6, 9]: 0.125 micrograms/mL; MIC ([7]; Table 4): 0.25 micrograms/mL; MIC [7, 9]: <0.06 micrograms/mL; Mean log10 CFU reduction vs. control ([8]; neutropenic CD-1 mice, total daily dosage 3 mg/kg (1.5 mg/kg BID) subcutaneous, 24 h post-infection, Table 5): 2.5 ^a log10 CFU; Mean log10 CFU reduction vs. control ([8]; neutropenic CD-1 mice, total daily dosage 10 mg/kg (5 mg/kg BID) subcutaneous, 24 h post-infection, Table 5): 4.2 ^a log10 CFU; Mean log10 CFU reduction vs. control ([8]; neutropenic mice, total daily dosage 3 mg/kg, additional study, Table 5A): 3.75 log10 CFU; Mean log10 CFU reduction vs. control ([8]; neutropenic mice, total daily dosage 10 mg/kg, additional study, Table 5A): 4.87 log10 CFU
